One test deals with Mu-type opioid receptor (Cavia porcellus, UniProt P97266). Description: Binding affinity against mu opioid receptor.
Test [1] concerns the target Opioid receptors; mu/kappa/delta (Homo sapiens, UniProt P41145+P41143+P35372). Description: Agonistic activity tested in vitro in guinea pig ileum opioid. It counts as functional, tissue-based, Cavia porcellus. The note with it: target entry is the homologue from another species.
Test [2] is described as follows: Binding affinity against Opioid receptor delta 1.

Starred links: 1 amine or outer side, 2 acyl side, 3 side chain; linkers in the order of their positions; H or OH if unused. Positions of bridges follow the written chain, without caps; N, C: chain ends. Non-standard residues stand in square brackets, D forms with d. Residues, ends and D or L forms follow the SMILES beside them. dPen = CC(C)(S)[C@@H](N)C(=O)O; Pen = CC(C)(S)[C@H](N)C(=O)O; CH2CH2 = C(C[*:2])[*:1]

Sequence of Mu-type opioid receptor (P97266 whole entry): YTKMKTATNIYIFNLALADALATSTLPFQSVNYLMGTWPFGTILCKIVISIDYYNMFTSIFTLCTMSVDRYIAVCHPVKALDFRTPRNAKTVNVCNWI

As for `CC1(C)SCCSC[C@@H](NC(=O)[C@@H](N)Cc2ccccc2)C(=O)N[C@@H](Cc2ccccc2)C(=O)N[C@H]1C(N)=O`, affinity at Mu-type opioid receptor was put at a Ki of 1.36 nM. In addition, in test [1], the IC50 – broadly, the concentration that inhibits the measured activity by half – amounted to 9.1 nM. Consider `CC1(C)SSC[C@@H](NC(=O)[C@@H](N)Cc2ccccc2)C(=O)N[C@@H](Cc2ccccc2)C(=O)N[C@H]1C(=O)O`, for which the Ki (as a rule, a measure of affinity in units of concentration, obtained from inhibition or displacement) at Mu-type opioid receptor was 610 nM. As for `CC1(C)SSC[C@H](NC(=O)[C@@H](N)Cc2ccc(O)cc2)C(=O)N[C@@H](Cc2ccccc2)C(=O)N[C@@H]1C(=O)O` (H-YCF[Pen]-OH; disulfide 2-4), in test [2], the affinity, expressed as Ki, was 0.74 nM.

Take `CC1(C)SCCSC[C@@H](NC(=O)[C@@H](N)Cc2ccc(O)cc2)C(=O)N[C@@H](Cc2ccccc2)C(=O)N[C@H]1C(N)=O` (H-Y[dC]F[dPen]-NH2; linker 2-4 via CH2CH2): the Ki on Mu-type opioid receptor worked out at 0.29 nM. Regarding `C[C@@H](NC(=O)[C@@H](N)Cc1ccc(O)cc1)C(=O)NCC(=O)N(C)[C@@H](Cc1ccccc1)C(=O)NCCO` [DAMGO], the Ki at Mu-type opioid receptor turned out to be 0.99 nM.

These data come from ChEMBL document CHEMBL1130596, “A high affinity, mu-opioid receptor-selective enkephalin analogue lacking an N-terminal tyrosine” (Bioorg Med Chem Lett, 1998).
